Measured values: patent US6407085B1, “Medicament containing betasitosterol and/or phytosterol/betasitosterol mixtures” (priority 1997, dated 2002)

Experiments:
[1] = oral tolerability of betasitosterol esters; format: in vivo; conditions: taken orally
[2] = in vivo; cited from earlier work
[3] = chloroform; cited from earlier work
[4] = cited from earlier work
[5] = solubility in oils, chloroform and water at room temperature
[6] = dissolving in oils, paraffins, stearates, Vaseline or glycerin with heat; format: physicochemical; conditions: for appearance in glycerin after cooling: after heating in glycerin; for appearance in oil after cooling: after heating in oil
Protocol: The solubility of phytosterol/betasitosterol mixtures and betasitosterol metabolites can be accelerated and improved with respect to yield if the effective ingredients are treated in oil, paraffins, stearates, or Vaseline with the application of heat at temperatures of around 70° C. to 160° C., advantageously at 120° C. to 140° C., advantageously over a period of 30 minutes to 3 hours.
If betasitosterol or sodium desoxycholate is heated in diverse natural and mineral oils, paraffins, commercially-available hypoallergenic stearate mixtures, or Vaseline (2 g substance in 100 ml) to 120° C., both substances dissolve fully within 90 minutes. Upon further heating to 150° C. (at 140° C., betasitosterol becomes liquid), betasitosterol dissolves up to around 15% in stearate mixtures, paraffins, and plant and mineral oils. […] In like manner, betasitosterol and sodium desoxycholate can be introduced into glycerin.

psoriasis = assay: salve applied to the skin in psoriasis; format: in vivo
Protocol: If phytosterol/betasitosterol mixtures, when they are dissolved in the above described form in oil, are stirred into a salve base alone or in a mixture with sodium desoxycholate in aqueous solution in a concentration of 0.5 to 2.0% and the salve base is applied to the skin, the itching of neurodermatitis usually is eased after only 2 to 5 minutes. Inflammation processes with redness and swelling are alleviated after 24 to 48 hours. Thus a histamine antagonistic as well as a cortisone-like effect is determined, but without the side effects of the hormone. In the case of psoriasis, the formation of scales is often reduced even in extreme cases only 24 hours after the first application, particularly with the use of the metabolite desoxycholic acid. Here again the use of such substances is completely unproblematic in contrast to a salve with a component of vitamin-D-like structure, which as a result of the resorption of the vitamin-D-like molecule can be applied only to a limited extent because of the danger of overdosing and thus the influencing of calcium metabolism.

In the case of CC[C@H](CC[C@@H](C)[C@H]1CC[C@H]2[C@@H]3CC=C4C[C@@H](OC(=O)[C@H](O)[C@@H](O)[C@H](O)[C@H](O)CO)CC[C@]4(C)[C@H]3CC[C@]12C)C(C)C [betasitosterol gluconic acid ester], the tolerability [1] is reported as “free of side effects and very well tolerated”.
For CC[C@H](CC[C@@H](C)[C@H]1CC[C@H]2[C@@H]3CC=C4C[C@@H](O)CC[C@]4(C)[C@H]3CC[C@]12C)C(C)C [betasitosterol], the “portion metabolized into cholic acid and chenodesoxycholic acid” value [2] is given as “around 20%”, the “solubility (D'ans-Lax)” value [3] is given as “soluble in chloroform” and the resorption quotient ([4]; healthy subjects) is given as “around 5%”. For the same molecule, the blood count ([4]; oral administration of up to 24 g per day) was 10 mg, the “solubility in oil on addition of sodium desoxycholate” value [5] was “further improved” and the “solubility in oil at room temperature” value ([5]; linseed oil, safflower oil, neutral oil, standing longer than 24 h at room temperature) was “dissolves in sufficient quantity”. The “appearance in glycerin after cooling” value [6] was “slightly opalescent”, the “appearance in oil after cooling” value [6] was “slightly opalescent” and the dissolving in glycerin ([6]; heated to 120° C.) was “dissolve completely clear”. For the same molecule, the amount dissolved ([6]; heating to 150° C., stearate mixtures, paraffins, plant and mineral oils) was “around 15%”.
In the case of desoxycholic acid, the “time after first application until formation of scales is reduced” value (psoriasis) is reported as 24 h, the “appearance in glycerin after cooling” value [6] is reported as “white pasty mass” and the “appearance with safflower oil” value ([6]; heated to 120° C.) is reported as “cloudy-opalescent emulsion”.
With sodium desoxycholate the water solubility [5] was “relatively water soluble”, the “appearance in glycerin after cooling” value [6] was “remains clear” and the “appearance in oil after cooling” value [6] was “remains clear”. For the same molecule, the dissolving in glycerin ([6]; heated to 120° C.) was “dissolve completely clear”.
